In patent US10857180B2, “Pharmaceutical composition for improving health, cure abnormalities and degenerative disease, achieve anti-aging effect of therapy and therapeutic effect on mammals and method thereof” (priority 2014, dated 2020):
Where two headings read alike, the source gives them in different places.

Key:
[1] = system: COLO 205 cell line; experiment: Cytogenetic analysis (micronucleus test) of COLO 205 cells; format: cell-based, human; details: ^39K 2 mg/ml, ^64Zn 20 mcg/ml, ^24Mg 4 mg/ml
Procedure: Advanced Micronucleus Test was used to assess the cytogenetic characteristics of cells after their exposure to the action of the test group of components.
Cytogenetic analysis was carried out after 48 hours of exposure of the cells to the action of the components. For cytogenetic analysis, the cells were incubated in hypotonic solution KCl (0.54%) (Reahim, Ukraine) for 40 minutes at +37° C. Then they were fixed with a mixture of methyl alcohol (Reahim, Ukraine) and acetic acid (Himlaborreaktiv, Ukraine) (3:1) with replacing the fixative three times. All fixed cell suspensions were applied on cold wet glasses, dried and stained with Giemsa stain (Sigma, Germany). The cytogenetic preparations were analyzed using a binocular microscope Sari Zeiss, AxioStarPlus (Germany) with magnification of x 1000. The following quantitative characteristics and stages of cell division were analyzed on the preparations: mitoses, cells with premature chromosome condensation (PCC), cells with micronuclei (CMN), apoptotic cells and cells with nuclear protrusions (protrusions) which were calculated for 1000 cells and expressed in per mille (%).

[2] = system: renal cell carcinoma (PA) cells; experiment: Immunocytochemistry (H-Score) of PA cells; format: cell-based, rat
Procedure: When making the immunocytochemistry (ICC) assay, cells on microscope glasses (cytospin preparations) were fixed in the solution (methanol+acetone 1:1) for 2 hours at t 20° C. and incubated with 1% solution of bovine serum albumin (BSA) for 20 minutes. Then the monoclonal antibodies—CD44 (Diagnostic BioSystems), E-cadherin (ThermoScientific), N-cadherin (NeoMarker, BioLegend)—were applied for 60 minutes, after which the Poly Vue imaging system conjugated with peroxidase was used and the enzyme activity was detected using diaminobenzidine (ThermoScientific) as a substrate.
After the immunocytochemical reaction the preparations were washed with water and counterstained with hematoxylin-eosin (for 15-30 seconds). The results were analyzed by counting cells with expression (brown colored cells), using a light microscope and were assessed using the classical H-Score method: S=1×A+2×B+3×C, where S is the H-Score index giving a range of 0 (protein is not detected) to 300 (high-level expression in 100% of the cells); A is the percentage of weakly stained cells, B is the percentage of moderately stained cells and C is the percentage of strongly stained cells.

[3] = system: stem cells derived from rat fibroblasts (RF); format: cell-based
[4] = system: Burkitt lymphoma (Namalwa line) cells; experiment: Immunocytochemical analysis (H-Score) of Namalwa cells; format: cell-based, human; details: for amount of N-cadherin-positive cells: exception ^39K 2 mg/ml and ^24Mg 2 mg/ml
Description: However, articles about an important role of EMT in the study of lymphomas and leukemias as well have started coming out recently, which is an interesting stage in the research into the tumor process as a whole, since these tumors radically differ from “usual solid neoplasias” in their histogenesis and, accordingly, in their phenotypic characteristics. Thus, such comprehensive research into adhesion proteins and cell cytoskeleton in the tumor cells of Burkitt lymphoma and acute promyelocyte leukemia after the action of the group of components under study is a relevant and contemporary attempt of a deeper analysis of the modification of a cell phenotype of tumor cells in order to assess changes in the degree of their malignancy. Materials and methods for leukemia cell lines HL-60 and Namalva and cell culture conditions will now be described. […] The first plate was for coloring cells with trypan blue and the second one was for the MTT assay.
Initial concentrations of the components.
After preparation of the corresponding concentrations of the components, they were introduced into appropriate wells of the plate in which HL-60 or Namalva cell were in complete medium. The volume of the culture medium with cells was 100 mcl per well and the concentration of cells in the suspension was 3×10^5 cells/ml (3×10^6/plate). After the components were placed into the wells, the final concentration (component+cells in the suspension) became smaller and corresponded to the values given in the Table of Concentration Characteristics.
After the incubation the medium was removed from the wells and the formed tetraformazan crystals were dissolved in 50 mcl of dimethylsulphoxide (Applichem, Germany). The results were fixed using a multi-well spectrophotometer with an excitation wave length of 540 nm. The percent of inhibition of cell viability was calculated using the following formula: IR=(1−A 540 (experiment)/A540 (control))×100%. In carrying out the immunocytochemical (ICC) assay, cells on microscope glasses (cytospin preparations) were fixed in the solution (methanol+acetone (1:1)) for 2 hours at t−20° C. and then incubated with a 1% solution of bovine serum albumin (BSA) for 20 minutes.
Then such monoclonal antibodies as CD44, N-cadherin, ICAM and IgM were applied for the period of time specified in the manufacturer's instructions (30 to 60 minute time intervals), after which Poly Vue imaging system conjugated with peroxidase was used and the enzyme activity was detected using diaminobenzidine (ThermoScientific) as a substrate. After the immunocytochemical reaction, the preparations were rinsed with water and counterstained with hematoxylin and eosin for 15 to 30 seconds. The results were analyzed by a quantitative estimation of cells with the marker expression (increased brown color of cells corresponded to a higher degree of expression of the marker) using a light microscope and assessed using the classical H-Score method: S=1×A+2×B+3×C, where S is the H-Score index the values of which are within the scope of 0 (protein is not detectable) to 300 (high-level expression in 100% of the cells), A is a percentage of weakly stained cells, B is the percentage of moderately stained cells, and C the percentage of strongly stained cells.

[5] = dose not stated, 72 hours in the control

SMILES: O=S(=O)([O-])[O-].[24Mg+2] [^24Mg]
- tumor proliferation (cell division) at the stage of G2/M [1]: inhibition of tumor proliferation
- number of CD44-positive cells ([2]; ^24Mg 2 mg/ml): did not differ from that of control cells
- number of CD44-positive cells ([2]; ^24Mg 3.5 mg/ml): increase significantly
- number of E-cadherin-positive cells ([2]; ^24Mg in 2 doses): increase in the number
- number of cells expressing N-cadherin ([2]; ^24Mg in 2 doses): slight increase
- time of restoration of the cell monolayer ([3]; ^24Mg 2 mg/ml): 72 h
- time of restoration of the cell monolayer ([3]; ^24Mg 3 mg/ml): 65 to 72 h
- time of restoration of the cell monolayer ([3]; ^24Mg 4 mg/ml): 82 h
- IgM marker expression level [4]: decrease in the expression level
- amount of N-cadherin-positive cells [4]: in most cases increased

SMILES: [39K+].[Cl-] [^39K]
- tumor proliferation (cell division) at the stage of G2/M [1]: inhibition of tumor proliferation
- number of E-cadherin-positive cells ([2]; ^39K 0.4 mg/ml): significantly increased
- number of E-cadherin-positive cells ([2]; ^39K 2 mg/ml): significantly reduced
- number of CD44-positive cells ([2]; ^39K both doses): significantly increased
- N-cadherin ([2]; ^39K dose D2): almost complete inhibition
- time of restoration of the cell monolayer ([3]; ^39K 1 mg/ml): 72 h
- time of restoration of the cell monolayer ([3]; ^39K 2 mg/ml): 96 h
- time of restoration of the cell monolayer [3, 5]: 72 h
- IgM marker expression level [4]: decrease in the expression level
- expression of CD44 marker [4]: significant inhibition
- amount of N-cadherin-positive cells [4]: in most cases increased

SMILES: O=S(=O)([O-])[O-].[64Zn+2] [^64Zn]
- tumor proliferation (cell division) at the stage of G2/M [1]: inhibition of tumor proliferation
- CD44 marker positive cells, H-Score scale ([2]; 3.2 mcg/ml): 126 units
- N-cadherin positive cells ([2]; ^64Zn 0.128 mcg/ml): slight increase
- number of E-cadherin-positive cells ([2]; ^64Zn 0.128 mcg/ml): increased number
- N-cadherin-positive cells ([2]; ^64Zn 3.2 mcg/ml): substantial increase
- number of E-cadherin-positive cells ([2]; ^64Zn 3.2 mcg/ml): decrease in the number
- time of restoration of the cell monolayer [3, 5]: 72 h
- IgM marker expression level [4]: decrease in the expression level
- expression of CD44 marker [4]: significant inhibition
- number of ICAM-positive cells, H-Score method ([4]; ^64Zn as sulfate 5 mcg/ml): 210
- amount of N-cadherin-positive cells [4]: in most cases increased
